We go through 15 molecules from patent US11419869B2, “Dosage forms and regimens for amino acid compounds” (Pliant Therapeutics, Inc., priority 2019, dated 2022).

SMILES strings stand for the structures. Where only a bound is given, the exact number is not on record here.

Broadly, the IC50 is the point on the concentration scale where inhibition reaches its midpoint.

Series [1] deals with lung Col1a1 expression. As to the kind of experiment: Precision cut lung slices, chronic bleomycin, versus pirfenidone and nintedanib (Example B10). In kind it is cell-based, mice. The settings on record: 7 days culture, vs DMSO vehicle, FIG. 6A. On the procedure: (§1) Mice (C57BL/6) were administered 3 U/kg of bleomycin (Teva Pharmaceuticals; North Wales, Pa.) on Day 0 and 1 U/kg of bleomycin on days 14, 28, 42 and 56 via oropharyngeal aspiration while under anesthesia. At day 70, 14 days following the final bleomycin insult, precision cut lung slices were obtained. Following euthanization, 2% low gelling temp agarose was injected into the mouse lungs via the trachea. […] The lobes were then subjected to precision slicing to obtain samples for culture using a microtome (Compresstome VF-300-0Z, Precisionary; Greenville, N.C.). Individual slices were distributed in a multiwell culture plate and cultured for 7 days under control (DMSO) and test compound conditions. The viability of the slices over the course of culturing was confirmed by WST-1 assay of mitochondrial activity.
During the culture period, slices in the control group were treated with DMSO and slices in the test group were treated with a DMSO solution of one of compound 5; nintedanib; pirfenidone; a combination of nintedanib and compound 5; a combination of pirfenidone and compound 5; or the small molecule ALK5 inhibitor. Compound 5 was […] effective to equal or exceed its respective IC50 values at αvβ6 and αvβ1. The small molecule ALK5 inhibitor was analyzed at […] its reported IC50 value. Nintendanib and pirfenidone were analyzed at concentrations 10× their reported therapeutic concentrations.

Series [2] concerns COL1A1 expression. As to the kind of experiment: Precision cut lung slices from human IPF explants, COL1A1 expression (Example B11). In kind it is cell-based. The settings on record: for expression of COL1A1 (treatment alone): PCLS from 5-7 IPF lung samples, seven days, nintedanib 75 nM, pirfenidone 50 μm. An excerpt:
Explanted lung tissue was obtained from human IPF subjects and inflated with agarose as described in the preceding examples. Biopsy cores were obtained from the agarose-inflated lung tissue. The biopsy cores were subjected to precision slicing to obtain several hundred μm thick. Individual slices were distributed in a multiwell culture plate and cultured for […] under control (DMSO) and test compound conditions. The viability of the slices over the course of culturing was confirmed by WST-1 assay of mitochondrial activity.
PCLS from 5-7 idopathic pulmonary fibrosis (IPF) lung tissue samples were cultured for seven days with one of: DMSO; Compound 5 at 200 nM; nintedanib at 75 nM; pirfenidone at 50 μm; a combination of Compound 5 at 200 nM and nintedanib at 75 nM; a combination of Compound 5 at 200 nM and pirfenidone at […]; or an Alk5 inhibitor at 1 μm. […] FIG. 6D is a bar graph showing relative expression of COL1A1 in precision cut lung slices (PCLS) from idopathic pulmonary fibrosis (IPF) lung tissue upon exposure to Comopund 5, clinical standard of care compounds nintedanib (Nin) and pirfenidone (Pirf), and an ALK5 inhibitor, all versus DMSO control.
PCLS from a single IPF lung tissue sample were cultured for seven days with Compound 5 at concentrations of […], 2 nM, 60 nM, 200 nM, and 1 μM, along with 0.1% DMSO control and an Alk5 inhibitor at 1 μM. […] COL1A1 expression is also graphed for the PCLS in the presence of 0.1% DMSO control, and an Alk5 inhibitor at 1 μM.

The conditions of series [3]: treatment of IPF; cited from earlier work.
In series [4] the test system is Col1a1 expression. As to the kind of experiment: lung slice Col1a1 expression versus DMSO control slices. The note with it: FIG. 6A; compared to the DMSO vehicle control slices.
Series [5] relates to Type I Collagen gene Col1a1 expression. Put plainly: Precision cut lung slices, mice under acute bleomycin exposure (Example B8). The settings on record: 3 days culture, normalized to DMSO, FIG. 5A. The class given is cell-based. On the procedure:
Mice (C57BL/6) were administered 3 U/kg of bleomycin (Teva Pharmaceuticals; North Wales, Pa.) on day 0 via oropharyngeal aspiration while under anesthesia. On day 14, precision cut lung slices were obtained. Following euthanization, 2% low gelling temp agarose was injected into the mouse lungs via the trachea. […] The lobes were then subjected to precision slicing to obtain samples for culture using a microtome (Compresstome VF-300-0Z, Precisionary; Greenville, N.C.). Individual slices were distributed in a multiwell culture plate and cultured for 3 days under control (DMSO) and test compound conditions.

In series [6] the test system is lung Col1a1 expression. As to the kind of experiment: Precision cut lung slices, mice under chronic bleomycin exposure (Example B9). The class given is cell-based. The note with it: 7 days culture, normalized to DMSO, FIG. 5B. The protocol: as §1, with “after” for “following”
During the culture period, slices in the control group were treated with DMSO and slices in the test group were treated with a DMSO solution of one of: the selective antibody αvβ6 inhibitor 3G9; the αvβ1-selective small molecule inhibitor; a combination of the selective antibody αvβ6 inhibitor 3G9 and the αvβ1-selective small molecule inhibitor; compound 5; and the small molecule ALK5 inhibitor. The selective αvβ1 and αvβ6 integrin inhibitors were analyzed at ≥their respective IC90 concentrations for inhibition of TGF-beta activation. […]

The target in series [7] is recombinant human integrin αvβ6 (Homo sapiens (Human), UniProt P06756+P18564). As to the kind of experiment: Solid Phase Integrin αvβ6 Binding Assay (Examples B1, B2). The note with it: TGFβ1 LAP ligand, values given in four ranges, read-out: αvβ6 Inhibition IC50 (nM)-range. In short, it runs like this:
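Plates coated with recombinant human αvβ6 (2 μg/mL) compete compound against recombinant TGFβ1 LAP (0.67 μg/mL) in TBS binding buffer with 0.5 mM MnCl2, 2 h at 25 °C. Bound LAP detected with biotin-anti-hLAP and peroxidase-streptavidin; IC50 by four-parameter logistic regression.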

Sequence of recombinant human integrin αvβ6 (P06756 31-992): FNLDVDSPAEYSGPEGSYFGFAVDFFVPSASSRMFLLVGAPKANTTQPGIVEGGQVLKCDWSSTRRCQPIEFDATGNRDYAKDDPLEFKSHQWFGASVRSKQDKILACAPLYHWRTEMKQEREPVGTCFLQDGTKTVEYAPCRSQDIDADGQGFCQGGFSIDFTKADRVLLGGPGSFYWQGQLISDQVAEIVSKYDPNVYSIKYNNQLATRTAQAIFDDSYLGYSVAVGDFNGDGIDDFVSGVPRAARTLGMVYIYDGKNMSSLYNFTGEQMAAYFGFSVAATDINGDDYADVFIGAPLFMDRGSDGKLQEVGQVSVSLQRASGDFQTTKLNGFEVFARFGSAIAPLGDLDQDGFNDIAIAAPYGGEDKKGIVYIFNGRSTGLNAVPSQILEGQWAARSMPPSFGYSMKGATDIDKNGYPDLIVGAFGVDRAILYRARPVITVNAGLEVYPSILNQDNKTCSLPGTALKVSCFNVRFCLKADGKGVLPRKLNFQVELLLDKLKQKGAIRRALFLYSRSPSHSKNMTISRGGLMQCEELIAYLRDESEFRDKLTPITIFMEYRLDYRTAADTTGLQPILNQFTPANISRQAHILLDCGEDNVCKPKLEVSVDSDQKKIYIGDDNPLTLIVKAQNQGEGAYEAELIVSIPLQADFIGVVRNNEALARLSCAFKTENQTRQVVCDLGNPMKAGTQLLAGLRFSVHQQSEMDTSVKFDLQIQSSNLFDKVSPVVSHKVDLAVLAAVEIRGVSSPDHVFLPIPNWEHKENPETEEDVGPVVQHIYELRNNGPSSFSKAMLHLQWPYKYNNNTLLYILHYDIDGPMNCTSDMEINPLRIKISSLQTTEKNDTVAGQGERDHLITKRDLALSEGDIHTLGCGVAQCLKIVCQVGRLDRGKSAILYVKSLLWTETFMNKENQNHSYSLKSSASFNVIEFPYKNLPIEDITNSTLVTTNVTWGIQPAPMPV
Sequence of recombinant human integrin αvβ6 (P18564 22-707): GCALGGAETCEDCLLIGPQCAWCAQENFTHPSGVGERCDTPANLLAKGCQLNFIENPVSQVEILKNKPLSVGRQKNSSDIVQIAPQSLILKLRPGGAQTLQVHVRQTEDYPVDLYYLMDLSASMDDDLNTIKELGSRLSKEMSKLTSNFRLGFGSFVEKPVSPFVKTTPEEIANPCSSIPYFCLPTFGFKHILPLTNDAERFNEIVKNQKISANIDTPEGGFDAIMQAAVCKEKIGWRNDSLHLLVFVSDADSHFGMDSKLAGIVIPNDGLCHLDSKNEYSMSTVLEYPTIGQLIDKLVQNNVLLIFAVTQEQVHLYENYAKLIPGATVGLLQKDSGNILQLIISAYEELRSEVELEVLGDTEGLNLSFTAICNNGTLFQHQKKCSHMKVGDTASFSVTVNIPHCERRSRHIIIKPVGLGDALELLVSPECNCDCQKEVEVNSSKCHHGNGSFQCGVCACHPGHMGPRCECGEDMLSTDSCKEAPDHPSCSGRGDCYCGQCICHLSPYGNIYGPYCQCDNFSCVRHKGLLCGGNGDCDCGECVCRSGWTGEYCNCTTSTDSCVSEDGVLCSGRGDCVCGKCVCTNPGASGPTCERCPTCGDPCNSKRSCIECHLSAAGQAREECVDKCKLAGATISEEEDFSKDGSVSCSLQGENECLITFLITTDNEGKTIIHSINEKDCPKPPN

In the case of `COC(=O)c1ccc2c(c1)NC(=O)/C2=C(\Nc1ccc(N(C)C(=O)CN2CCN(C)CC2)cc1)c1ccccc1` [nintedanib], the “lung slice Col1a1 expression” value in the series on lung Col1a1 expression [1] is on record as “slight increase”. In addition, the “expression of COL1A1 (treatment alone)” value in the series with COL1A1 expression [2] was “did not significantly reduce”. Also, in series [3], the side effects entry is given as “numerous side effects” and the therapeutic efficacy result is listed as “less therapeutic efficacy than desired”. Also, in the series on Col1a1 expression [4], the “lung Col1a1 expression” value was “slight increase”. With `CC(C)(C)c1cc(Br)cc([C@H](CC(=O)O)NC(=O)CNC(=O)c2cc(O)cc(NC3=NCC(O)CN3)c2)c1` (stereo partly drawn) [second pan-av small molecule inhibitor, (3S)—N-[3-hydroxy-5-[(1,4,5,6-tetrahydro-5-hydroxy-2-pyrimidinyl)amino]benzoyl]glycyl-3-[3-bromo-5-(1,1-dimethylethyl)phenyl]-β-alanine], in series [5], the “Type I Collagen gene Col1a1 expression” value was “reduced Type I Collagen gene Col1a1 expression”. Turning to `Cc1cccc(-c2n[nH]cc2-c2ccc(F)c(-c3cnn(CCO)c3)c2)n1` [small molecule ALK5 inhibitor, 4-[2-Fluoro-5-[3-(6-methyl-2-pyridinyl)-1H-pyrazol-4-yl]phenyl]-1H-pyrazole-1-ethanol, reference compound], in the series on lung Col1a1 expression [1], the “lung slice Col1a1 expression” value was “substantial, statistically significant (p<0.0001 vs vehicle) decrease”. Further, the “lung Col1a1 expression” value with COL1A1 expression [2] (human IPF slices, 3 days, 3G9 ≥400 ng/mL, compound 5 179 nM, ALK5 inhibitor 1 μM, FIG. 6C) is listed as “decrease in lung Col1a1 expression”; in the series on lung Col1a1 expression [6], “greatest decrease”. Besides, the “Type I Collagen gene Col1a1 expression” value in series [5] was “greatest decrease”.

As for `O=C(O)[C@H](CCN(CCCF)CCCCc1ccc2c(n1)NCCC2)Nc1ncc(C(F)(F)F)cn1` [Compound 137, (S)-4-((3-fluoropropyl) (4-(5,6,7,8-tetrahydro-1,8-naphthyridin-2-yl)butyl)amino)-2-((5-(trifluoromethyl)pyrimidin-2-yl)amino) butanoic acid], the IC50 in series [7] is less than 50 nM. On to `COCCN(CCCCc1ccc2c(n1)NCCC2)CC[C@H](Nc1ccnc(C(F)(F)F)n1)C(=O)O` [Compound 24, (S)-4-((2-methoxyethyl) (4-(5,6,7,8-tetrahydro-1,8-naphthyridin-2-yl)butyl)amino)-2-((2-(trifluoromethyl)pyrimidin-4-yl)amino) butanoic acid], for which the IC50 in series [7] was less than 50 nM.

On to `Cc1ncccc1OCCN(CCCCc1ccc2c(n1)NCCC2)CC[C@H](Nc1ncnc2ccccc12)C(=O)O` [Compound 52, (S)-4-((2-((2-methylpyridin-3-yl)oxy)ethyl) (4-(5,6,7,8-tetrahydro-1,8-naphthyridin-2-yl)butyl)amino)-2-(quinazolin-4-ylamino) butanoic acid], for which the IC50 in series [7] was less than 50 nM.

For `COCCN(CCCCc1ccc2c(n1)NCCC2)CC[C@H](Nc1nc(C(F)(F)F)nc2ccccc12)C(=O)O` [Compound 14, (S)-4-((2-methoxyethyl) (4-(5,6,7,8-tetrahydro-1,8-naphthyridin-2-yl)butyl)amino)-2-((2-(trifluoromethyl)quinazolin-4-yl)amino) butanoic acid], in series [7], the IC50 was less than 50 nM. As to `O=C(O)[C@H](CCN(CCCCc1ccc2c(n1)NCCC2)CCOc1ccccc1)Nc1ncc(Br)cn1` [Compound 83, (S)-2-((5-bromopyrimidin-2-yl)amino)-4-((2-phenoxyethyl) (4-(5,6,7,8-tetrahydro-1,8-naphthyridin-2-yl)butyl)amino) butanoic acid], the concentration for half-maximal inhibition (IC50) in series [7] is less than 50 nM. For `COCCN(CCCCc1ccc2c(n1)NCCC2)CC[C@H](Nc1ncnc2cccc(F)c12)C(=O)O` [Compound 18, (S)-2-((5-fluoroquinazolin-4-yl)amino)-4-((2-methoxyethyl) (4-(5,6,7,8-tetrahydro-1,8-naphthyridin-2-yl)butyl)amino) butanoic acid], in series [7], the IC50 was less than 50 nM. `CO[C@H](C)CN(CCCCc1ccc2c(n1)NCCC2)CC[C@H](Nc1ccnc(C(F)(F)F)n1)C(=O)O` [Compound 72, (S)-4-(((R)-2-methoxypropyl) (4-(5,6,7,8-tetrahydro-1,8-naphthyridin-2-yl)butyl)amino)-2-((2-(trifluoromethyl)pyrimidin-4-yl)amino) butanoic acid]: the IC50 in series [7] is less than 50 nM. On the same count and under the same terms, the same measure for `CN(C)C(=O)CN(CCCCc1ccc2c(n1)NCCC2)CC[C@H](Nc1ncnc2c1cnn2C)C(=O)O` [Compound 140, (S)-4-((2-(dimethylamino)-2-oxoethyl) (4-(5,6,7,8-tetrahydro-1,8-naphthyridin-2-yl)butyl)amino)-2-((1-methyl-1H-pyrazolo[3,4-d]pyrimidin-4-yl)amino) butanoic acid]: less than 50 nM.

For `Cc1ccc(=O)n(-c2ccccc2)c1` [pirfenidone], in the series with lung Col1a1 expression [1], the “lung slice Col1a1 expression” value is “slight increase”. In addition, the “expression of COL1A1 (treatment alone)” value in the series on COL1A1 expression [2] is “did not significantly reduce”. In addition, in series [3], the side effects result was “numerous side effects” and the therapeutic efficacy result is listed as “less therapeutic efficacy than desired”. In addition, the “lung Col1a1 expression” value in the series with Col1a1 expression [4] is “slight increase”. As to `Cc1ccc(OCCN(CCCCc2ccc3c(n2)NCCC3)CC[C@H](Nc2ncnc3ccccc23)C(=O)O)cn1` [Compound 59, (S)-4-((2-((6-methylpyridin-3-yl)oxy)ethyl) (4-(5,6,7,8-tetrahydro-1,8-naphthyridin-2-yl)butyl)amino)-2-(quinazolin-4-ylamino) butanoic acid], the IC50 in series [7] was less than 50 nM. With `Cc1nc(N[C@@H](CCN(CCCCc2ccc3c(n2)NCCC3)CC2CC(F)(F)C2)C(=O)O)c2ccc(F)cc2n1` [Compound 33, (S)-4-(((3,3-difluorocyclobutyl)methyl) (4-(5,6,7,8-tetrahydro-1,8-naphthyridin-2-yl)butyl)amino)-2-((7-fluoro-2-methylquinazolin-4-yl)amino) butanoic acid], in series [7], the IC50 is less than 50 nM.

Consider `COCCN(CCCCc1ccc2c(n1)NCCC2)CC[C@H](Nc1cc(C(F)(F)F)nc(C)n1)C(=O)O` [Compound 22, (S)-4-((2-methoxyethyl) (4-(5,6,7,8-tetrahydro-1,8-naphthyridin-2-yl)butyl)amino)-2-((2-methyl-6-(trifluoromethyl)pyrimidin-4-yl)amino) butanoic acid], for which the IC50 in series [7] was less than 50 nM.
